According to patent US20090181975A1, “NEBIVOLOL IN THE TREATMENT OF SEXUAL DYSFUNCTION” (FOREST LABORATORIES HOLDINGS LIMITED, priority 2008, published 2009):

Columns and labels:
anaesthetized dogs = conditions: cited from earlier work
anesthetized rats = assay: Erectile responses: intracavernosal pressure (ICP) increases to cavernosal nerve electrical stimulation; format: in vivo, rat (Sprague-Dawley); conditions: 3 mg/kg i.v.
Method: The effects of nebivolol administration on rat erectile function were studied. Erectile responses in rats were evaluated by measuring intracavernosal pressure (ICP) increases to cavernosal nerve electrical stimulation. To measure ICP, rats (Sprague-Dawley) were anesthetized with ketolar and diazepam. The surgical procedure included dissection and isolation of the right cavernous nerve through an abdominal midline incision and exposure of penile crura through a transverse perineal incision. ICP measurements were permitted by insertion of a 23-gauge needle into the right crus. The right carotid artery and left external jugular vein were catheterized for constant blood pressure measurement and saline infusion, respectively. Electrostimulation was performed with a delicate platinum bipolar hook electrode connected to a stimulator and current amplifier. Parameters of electrical stimulation included pulses with a duration of 0.3 ms and 1.5 mA of current intensity for 1 min. Frequency-response curves were performed by applying stimulation at 1, 3 and 10 Hz with a lapse of 3 min between each increase of frequency.

[1] = tested on: spontaneous hypertensive rats; conditions: acute; cited from earlier work

## OC(CNCC(O)C1CCc2cc(F)ccc2O1)C1CCc2cc(F)ccc2O1 (racemic) [nebivolol, α,α′-iminobis(methylene)bis[6-fluoro-2-chromanmethanol]]
Anaesthetized dogs
  effect on stroke volume: augments stroke volume
  effect on total peripheral vascular resistance: decreases total peripheral vascular resistance
Anesthetized rats
  effect on erectile responses to CNES: significantly potentiated
Anesthetized rats; control 1612±294, p<0.05
  AUC of ICP at 3 Hz: 2544±440 mmHg×s
[1]
  effect on blood pressure: acutely lowers blood pressure
